Assay results from PMC10630452, “The tumor-enriched small molecule gambogic amide suppresses glioma by targeting WDR1-dependent cytoskeleton remodeling” (Signal Transduction and Targeted Therapy, 2023).

How the values were obtained:
[1] = system: PDCs; experiment: Tumor sphere formation assay; assay type: cell-based, human
Procedure: For the tumor sphere formation assay, cells were inoculated in 96-well plates at 600 cells/well in a volume of 100 μL. The tumor spheres with a diameter of 50–100 μm and a diameter of over 100 μm were counted separately under a microscope after 14 days. For the limiting dilution assay, cells were dissociated to generate a single-cell suspension, which was diluted along a gradient for seeding in a 96-well plate at concentrations ranging from 400 cells to 25 cells in a volume of 100 μL per well.

[2] = system: GSC2 intracranial xenograft; experiment: GSC2-derived intracranial xenograft model; assay type: in vivo, nude mice; conditions: 1 mg/kg i.v. daily for 13 days
Procedure: (§1) Fig. 3 The inhibitory effects of GA-amide in glioma stem cell-derived mouse models and transgenic mouse models. a, b GSC2 cells were implanted s.c. into nude mice. Mice were treated with control (DMSO) (n = 7) or GA-amide (2 mg/kg) (n = 8) via i.p. injection once daily for 11 days, after which a photograph (a) was taken to show the tumor volume, and the tumor volume was calculated by a modified ellipsoid formula in (b). c, d GSC2 cells were implanted intracranially into nude mice. Mice were injected i.v. with control (n = 8) or 1 mg/kg GA-amide (n = 8) daily for 13 days, the Mantel‒Cox log–rank test was used for analysis, and the relative survival curves are shown in (c). The body weights are shown in (d). e In vivo efficacy studies of GA-amide using transgenic mouse models. Glioma was induced in transgenic C57BL/6 mice by injection of pTomo-Ras-sip53 lentivirus, and the strategy is shown. f, g MRI analysis was used to group mice into the control (n = 7) and GA-amide-treated groups (n = 8) before treatment. […]
For the intracranial xenograft mouse models, 1 × 10^5 GSC2 or U87MG-SLC cells were injected into the frontal cortex (1 mm rostral to the bregma, 2 mm lateral to the midline, and 3 mm deep) using a microsyringe (Hamilton). […] The tumor size was measured by MRI, and survival analysis was performed in a blinded manner.

[3] = system: intracranial orthotopic glioma PDX; experiment: Intracranial orthotopic PDX model (GBM2); assay type: in vivo, NSG mice; conditions: 1 mg/kg i.v. daily for 10 days
Procedure: as §1
For the intracranial PDX model, the tumor tissue (GBM2) will be mechanically minced using scissors and then […] NSG mice (Male, 6–8 weeks). […] After 7 days of tumor development, the mice were grouped dependent on the tumor size measured by MRI. […] After treatment, the tumor size was measured by MRI again.

[4] = target: T1, TrkA (Homo sapiens, UniProt P04629); experiment: Western blot of TrkA phosphorylation in GSCs; assay type: cell-based; conditions: GSC2 and U87MG-SLC cells, 4 hours
T1 construct: endogenous in cells; host or cells: GSC2 and U87MG-SLC glioma stem cells
Procedure: Proteins in the samples were separated on SDS–polyacrylamide gels and transferred to nitrocellulose membranes (Amersham, Sweden). After blocking with 5% skim milk, the membranes were incubated with the indicated primary antibodies listed in Supplementary Table 3 overnight. After washing with 1 × TBST three times, the membranes were incubated with secondary antibodies, and protein bands were detected by using ECL reagent.
Supplementary Fig. 5 TrkA was not the functional target for GA-amide to inhibit glioma. a Western blot analyses of the TrkA and p-TrkA expression in GSC2 and U87MG-SLC cells with GA-amide treatment for 4 hours. b Western blot analyses of the p-TrkA expression in GSC2 with GA-amide treatment for different times. c, d The combination effects of GA-amide with GW441756, a TrkA inhibitor, or with K252a, an inhibitor of Trk family in GSC2 (c) and U87MG-SLC (d) (48 hours, n = 3).

[5] = Acute toxicity assay, blood routine examination; assay type: in vivo, mice; conditions: for #Retic (Reticulocyte) / CH (corpuscular hemoglobin) / CHCM (Cellular Hemoglobin Concentration Mean) / CHDW (Cell hemoglobin distribution width) / HCT (Hematocrit) / HDW (Hemoglobin Distribution Width) / HGB (Hemoglobin) / MCH (Mean Corpuscular Hemoglobin) / MCHC (Mean corpuscular hemoglobin concentration) / MCV (Mean Corpuscular Volume) / MPV (Mean platelet volume) / PCT (Plateletocrit) / PDW (Platelet distribution width) / PLT (Platelet) / RBC (Red Blood Cell) / RDW (red blood cell volume distribution width) / WBC (White Blood Cell): mice

T1 sequence (P04629 33-796): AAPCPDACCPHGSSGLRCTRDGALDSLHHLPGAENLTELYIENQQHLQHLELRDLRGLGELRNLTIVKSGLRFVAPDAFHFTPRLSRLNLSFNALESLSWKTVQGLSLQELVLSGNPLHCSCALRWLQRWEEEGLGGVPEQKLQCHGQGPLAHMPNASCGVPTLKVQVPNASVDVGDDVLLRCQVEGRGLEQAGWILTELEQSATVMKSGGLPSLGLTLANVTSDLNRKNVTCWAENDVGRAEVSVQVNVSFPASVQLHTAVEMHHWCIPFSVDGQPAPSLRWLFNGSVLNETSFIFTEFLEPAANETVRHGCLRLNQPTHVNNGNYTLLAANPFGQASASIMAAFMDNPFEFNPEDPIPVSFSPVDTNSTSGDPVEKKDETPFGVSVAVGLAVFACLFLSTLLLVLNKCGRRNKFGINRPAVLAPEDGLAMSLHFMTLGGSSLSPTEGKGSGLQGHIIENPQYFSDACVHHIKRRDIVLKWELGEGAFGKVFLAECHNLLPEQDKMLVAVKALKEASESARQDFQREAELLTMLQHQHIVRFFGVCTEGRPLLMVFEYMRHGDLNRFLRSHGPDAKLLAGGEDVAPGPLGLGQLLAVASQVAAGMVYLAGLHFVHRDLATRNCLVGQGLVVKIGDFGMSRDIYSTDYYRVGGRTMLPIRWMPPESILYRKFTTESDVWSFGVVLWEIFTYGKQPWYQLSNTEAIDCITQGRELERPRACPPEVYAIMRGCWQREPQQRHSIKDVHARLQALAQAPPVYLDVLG

SMILES: CC(C)=CCC[C@]1(C)C=Cc2c(O)c3c(c(CC=C(C)C)c2O1)O[C@]12C(=C[C@@H]4CC1C(C)(C)O[C@@]2(C/C=C(/C)C(N)=O)C4=O)C3=O [GA-amide, gambogic amide]
- tertiary tumor sphere formation ([1]; T2-4 and T12-2, cells from secondary spheres pretreated 4 h): still suppressed
- secondary tumor sphere formation potential ([1]; pretreatment 4 h with 0.3 μM, 1 μM and 3 μM): completely abolished
- mouse body weight versus control [2]: no significant difference in mouse body weight
- survival [2]: prolonged survival times
- tumor volume by MRI versus control [3]: significantly smaller compared to the control mice
- TrkA phosphorylation [4]: TrkA was phosphorylated at Y751 and Y490 in GSCs
- routine blood parameters and serum biochemical analytes versus control ([5]; 1 mg/kg and 10 mg/kg, one-time i.v., ALT and Cl fluctuated): no significant differences in routine blood parameters and most analytes evaluated in biochemical analysis of mouse serum
- #Retic (Reticulocyte) ([5]; 1mg/kg one-time i.v.): 335.1±72.9 ×109cells/L
- CH (corpuscular hemoglobin) ([5]; 1mg/kg one-time i.v.): 16.8 ± 0.5 pg
- CHCM (Cellular Hemoglobin Concentration Mean) ([5]; 1mg/kg one-time i.v.): 35.7 ± 0.8 g/dL
- CHDW (Cell hemoglobin distribution width) ([5]; 1mg/kg one-time i.v.): 3.00±0.39%
- HCT (Hematocrit) ([5]; 1mg/kg one-time i.v.): 42.8±7.5%
- HDW (Hemoglobin Distribution Width) ([5]; 1mg/kg one-time i.v.): 2.66 ± 0.20 g/dL
- HGB (Hemoglobin) ([5]; 1mg/kg one-time i.v.): 13.0 ± 0.7 g/dL
- MCH (Mean Corpuscular Hemoglobin) ([5]; 1mg/kg one-time i.v.): 14.5 ± 1.7 pg
- MCHC (Mean corpuscular hemoglobin concentration) ([5]; 1mg/kg one-time i.v.): 31.0 ± 3.9 g/dL
- MCV (Mean Corpuscular Volume) ([5]; 1mg/kg one-time i.v.): 47.0 ± 1.8 fL
- MPV (Mean platelet volume) ([5]; 1mg/kg one-time i.v.): 8.3 ± 0.3 fL
- PCT (Plateletocrit) ([5]; 1mg/kg one-time i.v.): 1.33±0.30%
- PDW (Platelet distribution width) ([5]; 1mg/kg one-time i.v.): 48.8±2.5%
- PLT (Platelet) ([5]; 1mg/kg one-time i.v.): 1603±310 ×103cells/μL
- RBC (Red Blood Cell) ([5]; 1mg/kg one-time i.v.): 9.09±1.40 ×106cells/μL
- RDW (red blood cell volume distribution width) ([5]; 1mg/kg one-time i.v.): 16.5±1.2%
- WBC (White Blood Cell) ([5]; 1mg/kg one-time i.v.): 4.78±1.34 ×103cells/μL
- #Retic (Reticulocyte) ([5]; 10mg/kg one-time i.v.): 836.7±674.4 ×109cells/L
- CH (corpuscular hemoglobin) ([5]; 10mg/kg one-time i.v.): 17.0 ± 0.5 pg
- CHCM (Cellular Hemoglobin Concentration Mean) ([5]; 10mg/kg one-time i.v.): 35.4 ± 1.3 g/dL
- CHDW (Cell hemoglobin distribution width) ([5]; 10mg/kg one-time i.v.): 3.15±0.11%
- HCT (Hematocrit) ([5]; 10mg/kg one-time i.v.): 48.5±5.1%
- HDW (Hemoglobin Distribution Width) ([5]; 10mg/kg one-time i.v.): 2.71 ± 0.10 g/dL
- HGB (Hemoglobin) ([5]; 10mg/kg one-time i.v.): 13.6 ± 0.5 g/dL
- MCH (Mean Corpuscular Hemoglobin) ([5]; 10mg/kg one-time i.v.): 13.6 ± 1.8 pg
- MCHC (Mean corpuscular hemoglobin concentration) ([5]; 10mg/kg one-time i.v.): 28.4 ± 3.8 g/dL
- MCV (Mean Corpuscular Volume) ([5]; 10mg/kg one-time i.v.): 47.8 ± 1.1 fL
- MPV (Mean platelet volume) ([5]; 10mg/kg one-time i.v.): 8.4 ± 0.2 fL
- PCT (Plateletocrit) ([5]; 10mg/kg one-time i.v.): 1.63±0.60%
- PDW (Platelet distribution width) ([5]; 10mg/kg one-time i.v.): 49.9±2.3%
- PLT (Platelet) ([5]; 10mg/kg one-time i.v.): 1936±670 ×103cells/μL
- RBC (Red Blood Cell) ([5]; 10mg/kg one-time i.v.): 10.13±1.05 ×106cells/μL
- RDW (red blood cell volume distribution width) ([5]; 10mg/kg one-time i.v.): 17.0±0.6%
- WBC (White Blood Cell) ([5]; 10mg/kg one-time i.v.): 4.38±0.95 ×103cells/μL
